Assay results reported in patent US20210115366A1, “METHODS OF MAKING IMPROVED HUMAN INTESTINAL ORGANOID COMPOSITIONS VIA APPLICATION OF STRAIN AND HUMAN INTESTINAL ORGANOID COMPOSITIONS THEREOF” (Children's Hospital Medical Center, priority 2017, published 2021).
“Also recorded” adds a separate entry of the source.

Columns and labels:
[1] = tested on: tHIO+S; assay: Ex vivo muscle strength (organ bath, isometric force) of tHIO+S muscle strips; design: species or system human
Experimental: (§1) After an equilibration period, muscle force contraction was assayed using a logarithmic series of bethanechol doses ranging in concentration from 1 nM to 10 mM. Representative tensile response recordings are plotted for tHIO, tHIO+S and adult jejunum (FIG. 7B). […] To better visualize the differences between tHIO and tHIO+S the data was also plotted sans adult jejunum (FIG. 7C, right panel).
(§2) tHIO and tHIO+S grafts were harvested and placed in ice-cold Hank's Balanced Salt Solution (HBSS). Human surgical samples were maintained overnight at 4° C. in HBSS prior to assaying in order to minimize the effects of anesthetics. Muscle strips (4-6 mm in length and 1-2 mm in width) were dissected from the samples. Strips were then suspended vertically in an organ bath chamber (Radnoti) filled with freshly prepared Krebs-Ringer solution (Sigma; supplemented with 2.5 mM CaCl and 15 mM NaHCO3; pH 7.4), warmed to 37° C. and gassed with 95% O2+5% CO2. Segments were allowed to equilibrate for an hour at an initial tension of 0.5 g. The contractile response of the muscle was continuously recorded, using 4-chamber tissue-organ bath chambers with isometric force transducers (0-25 g; AD Instruments) coupled to a multi-channel bridge amplifiers and data recorder (AD Instruments; PowerLab 4/35) linked to a computer equipped with LabChart Pro software (AD Instruments). […]

[2] = tested on: tHIO; assay: Ex vivo muscle strength (organ bath, isometric force) of tHIO muscle strips; design: species or system human
Experimental: as §1, §2

[3] = tested on: adult human jejunum; assay: Ex vivo muscle strength (organ bath, isometric force) of adult jejunum muscle strips
Experimental: as §1, §2

[4] = tested on: infant jejunum; assay: Ex vivo muscle strength (organ bath, isometric force) of infant jejunum muscle strips; design: species or system human; conditions: 10 μM after bethanechol dose series
Experimental: as §1, §2

[5] = 10 μM after bethanechol dose series

EC50 ([1]; Homo sapiens, logarithmic doses 1 nM to 10 mM, read-out: effective concentration to achieve half of the maximal response (EC50), muscle contraction) | EC50 ([3]; adult human jejunum muscle strips, logarithmic doses 1 nM to 10 mM, read-out: effective concentration to achieve half of the maximal response (EC50), muscle contraction) | Compound | tensile response to bethanechol ([2]; 1 nM to 10 mM, EC50 with 95% confidence could not be determined) | tension before and after administration of scopolamine (relaxation) [1, 5] | tension before and after administration of scopolamine (relaxation) [4] | tension before and after administration of scopolamine (relaxation) [2, 5] | tension before and after administration of scopolamine (relaxation) ([3]; adult jejunum muscle strips, 10 μM after bethanechol dose series)
14.7 µM | 3.28 µM | CC(C[N+](C)(C)C)OC(N)=O (stereo not shown) [bethanechol, Carbamyl-p-methylcholine chloride] | low overall tensile response | – | – | – | –
– | – | CN1[C@@H]2C[C@@H](OC(=O)[C@H](CO)c3ccccc3)C[C@H]1[C@@H]1O[C@@H]12 [scopolamine] | – | Relaxation was successfully induced; also recorded: relaxation is observed | Relaxation was successfully induced | Relaxation was successfully induced; also recorded: relaxation is observed | Relaxation was successfully induced
